SMILES strings stand for the structures.

Results on six molecules are retold here after article PMC6391970, “Design, Synthesis and Characterization of Covalent KDM5 Inhibitors” (Angewandte Chemie (International Ed. in English), 2018).

The target in this assay is T1, KDM3A (Homo sapiens, UniProt Q9Y4C1).
T1 sequence (Q9Y4C1 1-1321): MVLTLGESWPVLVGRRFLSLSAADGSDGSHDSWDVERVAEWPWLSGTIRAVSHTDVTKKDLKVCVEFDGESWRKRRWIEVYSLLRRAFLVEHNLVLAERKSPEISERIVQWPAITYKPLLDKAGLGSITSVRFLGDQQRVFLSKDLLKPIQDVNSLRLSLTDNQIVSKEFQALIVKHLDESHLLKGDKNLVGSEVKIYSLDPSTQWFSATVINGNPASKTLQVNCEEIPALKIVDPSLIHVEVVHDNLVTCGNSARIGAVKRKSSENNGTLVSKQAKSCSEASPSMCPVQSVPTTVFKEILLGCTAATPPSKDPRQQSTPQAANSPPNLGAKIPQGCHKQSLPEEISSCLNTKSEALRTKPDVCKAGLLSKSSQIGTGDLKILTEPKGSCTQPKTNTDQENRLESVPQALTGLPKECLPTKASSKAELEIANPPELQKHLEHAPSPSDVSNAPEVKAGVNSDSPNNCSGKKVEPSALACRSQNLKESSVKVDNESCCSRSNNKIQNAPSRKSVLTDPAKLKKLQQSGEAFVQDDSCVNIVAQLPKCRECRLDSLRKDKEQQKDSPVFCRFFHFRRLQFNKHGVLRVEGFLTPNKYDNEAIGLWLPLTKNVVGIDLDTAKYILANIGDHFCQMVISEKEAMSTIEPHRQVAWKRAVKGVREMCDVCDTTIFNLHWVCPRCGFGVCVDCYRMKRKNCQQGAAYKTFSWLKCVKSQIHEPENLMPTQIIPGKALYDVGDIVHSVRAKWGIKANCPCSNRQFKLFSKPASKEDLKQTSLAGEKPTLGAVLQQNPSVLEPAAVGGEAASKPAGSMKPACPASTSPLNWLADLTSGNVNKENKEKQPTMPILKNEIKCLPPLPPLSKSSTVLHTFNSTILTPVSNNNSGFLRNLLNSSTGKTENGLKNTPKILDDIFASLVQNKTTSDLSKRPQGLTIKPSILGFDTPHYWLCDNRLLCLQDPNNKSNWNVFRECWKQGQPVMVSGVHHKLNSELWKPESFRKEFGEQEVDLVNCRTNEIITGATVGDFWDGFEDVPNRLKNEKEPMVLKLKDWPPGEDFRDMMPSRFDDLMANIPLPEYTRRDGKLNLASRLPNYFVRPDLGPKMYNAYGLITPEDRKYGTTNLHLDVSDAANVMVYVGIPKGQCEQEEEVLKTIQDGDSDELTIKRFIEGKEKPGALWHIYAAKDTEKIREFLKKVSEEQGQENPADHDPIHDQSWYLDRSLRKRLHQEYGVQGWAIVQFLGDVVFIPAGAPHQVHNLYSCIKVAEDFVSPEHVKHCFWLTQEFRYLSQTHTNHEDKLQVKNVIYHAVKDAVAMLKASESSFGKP
Briefly: KDM AlphaScreen selectivity panel, KDM3A. It counts as biochemical. The conditions noted are these: for IC50: AlphaScreen after 120 min pre-incubation, read-out: KDM IC50 3A; for SI over KDM5B, 3A: KDM3A IC50/KDM5B IC50. The method, then: A panel of JmjC KDMs was tested by AlphaScreen to determine the selectivity of the compounds (Table S2). […]
KDM alpha screen selectivity
Inhibition of histone demethylases was assessed using the histone demethylase AlphaScreen assay (Amplified Luminescence Proximity Homogenous Assay) as previously reported.[4] The basis of this assay for lysine demethylases have been widely described.[5] In brief, the assay was performed in 384-well plate format using white proxiplates (PerkinElmer), and transfer of titrations of compounds (100 nl) was performed using an ECHO 550 acoustic dispenser […]
Tween- 20) containing the appropriate demethylase enzyme (see Supplementary table 1 for final concentrations) was transferred to each well of a 384-well proxiplate with a Multidrop™ Combi Reagent Dispenser, and the enzymes allowed to pre-incubate for 120 minutes with compound (final concentration of DMSO was 1%). After that time, the enzyme reaction was initiated by addition of 5 µl of a substrate mix consisting of Ketoglutarate (2-OG), Ferrous Ammonium Sulphate (FAS), L-Ascorbic Acid (LAA) and biotinylated peptide substrate (see Supporting table X for final assay concentrations) and the reaction incubated for the indicated time at room temperature. Reaction was stopped by the addition of 5 μl of assay buffer containing EDTA (7.5 mM) and NaCl (400 mM). Streptavidin Donor beads (0.08 mg/ml) and Protein-A conjugated acceptor beads (0.08 mg/ml) (AlphaScreen General IgG detection kit was from Perkin Elmer) were pre-incubated for 1 hour with an antibody to the product methyl mark (Supplementary Table 1) and the presence of biotin-H3-product was detected by addition of 5 µl of the pre-incubated AlphaScreen beads (final concentrations of 0.02 mg/ml with respect to acceptor and donor beads). Detection was allowed to proceed for 2 hour at room temperature and the assay plates read in a BMG Labtech Pherastar FS plate reader (excitation, 680 nm; emission, 570 […]
IC50(t) = Ki (1 + K ) . ( η . k .t − 1) (1) […]
Table S4. AlphaScreen assay conditions for the KDM selectivity panel

As for `C=CC(=O)Nc1cccc(CN(C)CCc2cnn(-c3nccc4c(=O)[nH]cnc34)c2)c1` [Compound 4], the IC50 came out at 8.4 ± 4.1 µM.

In the case of `CN(CCc1cnn(-c2nccc3c(=O)[nH]cnc23)c1)Cc1cccc(NC(=O)CCl)c1` [Compound 5], the IC50 amounted to 2.6 ± 0.1 µM and the “SI over KDM5B, 3A” value came to 260.

Regarding `CC(C)c1c(-c2cnn(CCNC(=O)CCl)c2)[nH]c2c(C#N)cnn2c1=O` [Compound 7], the IC50 came to 5.7 ± 0.4 µM and the “SI over KDM5B, 3A” value worked out at 806.

Turning to `C=CC(=O)NCCOc1ccc(-c2[nH]c3c(C#N)cnn3c(=O)c2C(C)C)cc1` [Compound 9], the IC50 came to 17 ± 0.4 µM and the “SI over KDM5B, 3A” value was determined as 264.

Turning to `C=CC(=O)N1CCC(n2cc(-c3[nH]c4c(C#N)cnn4c(=O)c3C(C)C)cn2)CC1` [Compound 10], the IC50 turned out to be 9.4 ± 0.4 µM and the “SI over KDM5B, 3A” value stood at 547.

Regarding `CC(C)c1c(-c2cnn(C3CCN(C(=O)CCl)CC3)c2)[nH]c2c(C#N)cnn2c1=O` [Compound 11], the IC50 worked out at 9.1 ± 0.8 µM and the “SI over KDM5B, 3A” value was determined as 1007.
